Reference: US20160213639A1, “COMPOSITIONS AND METHODS FOR TREATING NON-ALCOHOLIC STEATOHEPATITIS” (MOCHIDA PHARMACEUTICAL CO., LTD., priority 2013, published 2016)

What was measured:
[1] = parameters: species or system dogs; details: dog, in vivo, po, 30 mg/kg, 1 week
Method: (§1) Consequently, when EPA-E is administered orally to humans, it would appear that it is well absorbed, even though the unchanged ethyl ester form is not detected, and the free form (EPA) is only detected at a very low level, in the blood. Due to this absorption mechanism of essential fatty acids, the administered EPA-E exists as a blood-constituent fatty acid in the total lipids. In fact, according to the approval package document of Lovaza®, the free form of EPA is undetectable in the circulation (<1 μM) following an oral dose of 4 g of Omacor® (a mixture of the ethyl esters of EPA and DHA) Following oral administration of EPA-E, EPA, DPA and DHA were isolated and identified as metabolites in tissues and plasma. EPA, DPA and DHA were incorporated into TG and PL. Radioactivity was primarily excreted in expired air (44%) after single oral administration at 30 mg/kg EPA-E with minimal excretion in bile and urine (˜3%) and approximately 20% excreted in feces.

[2] = ADME of 14C-EPA-E in rats (absorption, distribution, metabolites, excretion); type: in vivo
Method: EPADEL® is a product containing ethyl all-cis-5,8,11,14,17-eicosapentaenoate (EPA-E), one of the n-3 essential fatty acids. The preclinical absorption, distribution, metabolism and excretion (ADME) characteristics of EPA-E have been determined primarily in rats.
After administration of ^14C-EPA-E into the ligated intestine of rats, the residual radioactivity in the intestine at 24 hours was only 4.6% of the administered dose. Radioactivity transferred to the plasma and lymph was mainly detected in the triglyceride (TG) fraction in the early phase after dosing, while distribution to the free fatty acid (FFA) fraction was slight at all timepoints. […] Orally administered EPA-E was primarily incorporated in adrenal gland lipids as cholesterol esters of the fatty acids eicosapentaenoic acid (EPA), docosapentaenoic acid (DPA) and docosahexaenoic acid (DHA).
as §1
Renal excretion was the elimination route for several minor highly polar metabolites (<0.4%), but EPA-E, EPA, DPA or DHA were not detected in the urine. In feces, EPA-E and EPA, evidently derived from the unabsorbed drug, were detected; however, no DPA or DHA was detected in the feces.
In the total lipid fraction of the liver, the radioactivity originated mainly from EPA, DPA and DHA. Thus, it is considered that EPA, DPA and DHA are the predominant metabolites of ^14C-EPA-E in tissues, as constituent fatty acids of the total lipid fraction.

[3] = Hydrolysis in small intestine homogenates, lymph, plasma and liver homogenates; type: in vitro ADME; details: plasma and liver homogenates of the rat
CYP450 = details: at free concentrations observed in humans; cited from earlier work
[4] = test system: diet-induced hepatic steatosis model; assay: Mouse diet-induced hepatic steatosis model; type: in vivo; details: repeat oral administration at >0.1 mg/g
[5] = test system: galactosamine-induced steatohepatitis mouse model; assay: Galactosamine-induced steatohepatitis mouse model; type: in vivo; details: oral administration at 1000 mg/kg; by suppressing triglyceride accumulation
[6] = Phase II NASH trial: safety analysis; type: in vivo, human; details: over the course of the study, all arms
From the text: This example provides the protocol used for an ongoing phase II clinical trial, double blind, placebo-controlled study to investigate the safety, efficacy, and pharmacokinetic profile of two doses of EPA-E in subjects with NASH. Up to 70 subjects were enrolled into each treatment arm, for a total of 210 subjects to be enrolled. Block randomization using an interactive voice response system (IVRS) was used to assign patients in a 1:1:1 ratio to two active doses and placebo. Patients were stratified at randomization by presence or absence of diabetes. Patients with diabetes comprised no more than 25% of the total number of patients enrolled. Subjects were treated with 600 mg EPA-E, 900 mg EPA-E or placebo three times a day for one year. […]
The primary one-year efficacy endpoint was a composite of either a NAS <3 without worsening of fibrosis or a drop in NAS by 2 or more with contribution from more than one parameter and no worsening of fibrosis. […] This was assessed by analysis of covariance. Secondary endpoints included changes in the individual histological parameters related to NAFLD, overall NAS, liver enzymes and function, hemoglobin A1C, acute phase reactants, insulin sensitivity as measured by the homeostatic model (HOMA-IR), levels of cytokeratin 18 (CK18), hyaluronic acid, type IV collagen (7S domain), procollagen III peptide and key cytokines. […]

[7] = Lipid lowering in animal models; type: in vivo; details: rats, hamsters and rabbits
platelets = assay: Platelet anti-aggregation; type: cell-based; details: platelets from rats, rabbits and humans
[8] = Gastric fluid levels in pylorus-ligated rats; type: in vivo; details: 3000 mg/kg oral dose
[9] = Safety pharmacology studies; type: in vivo; details: oral doses up to 3000 mg/kg
NASH [10] = assay: Phase II NASH trial: liver histology (NAS, steatosis, ballooning, inflammation, fibrosis); type: in vivo, human; details: for subjects who met the primary endpoint: 12 months, p=ns vs placebo (20); for mean decrease in NAS: placebo 0.9, p=n.s.; for subjects with a decrease in NAS by more than 2 points: placebo sixteen, p=n.s.
From the text: (§2) This example provides the protocol used for an ongoing phase II clinical trial, double blind, placebo-controlled study to investigate the safety, efficacy, and pharmacokinetic profile of two doses of EPA-E in subjects with NASH. Up to 70 subjects were enrolled into each treatment arm, for a total of 210 subjects to be enrolled. Block randomization using an interactive voice response system (IVRS) was used to assign patients in a 1:1:1 ratio to two active doses and placebo. Patients were stratified at randomization by presence or absence of diabetes. Patients with diabetes comprised no more than 25% of the total number of patients enrolled. Subjects were treated with 600 mg EPA-E, 900 mg EPA-E or placebo three times a day for one year.
In order to support the trial, EPA-E capsules and matching placebo capsules were prepared. EPA-E capsule is an oval soft gelatin capsule containing 300 mg of EPA-E as an active ingredient. […] These capsules are unidentifiable as EPA-E capsules or placebo capsules.
Subjects were administered orally 3 capsules 3 times daily, immediately after meals.
Adult subjects with biopsy-confirmed NASH within six months prior to randomization or those with suspected NASH were screened for the study. […] The histology was assessed using the NASH CRN criteria. The histological entry criteria included (1) the presence of possible or definite steatohepatitis, and (2) a NAFLD activity score (NAS) ≧4 with a minimum score of 1 each for steatosis and inflammation plus either ballooning or at least stage 1a sinusoidal fibrosis. The nonalcoholic nature of the disease was defined by a history of consumption of less than 3 drinks daily (approximately 10 gm alcohol/drink) for the previous 5 years. Those who exceeded these limits at the time of randomization or for more than 3 consecutive months within the five year time frame were excluded.
The liver biopsies from subjects being considered for the trial were sent to a central pathology laboratory where they were read and scored. A total of 4 pathologists with experience in liver histopathology reviewed the biopsies. All the pathologists underwent a training session conducted by the lead pathologist (OWC) prior to the study. After slide quality assessment, the cases were randomly assigned to 2 reviewers who scored fatty change, lobular inflammation, hepatocyte ballooning and fibrosis as previously described. If there was a discrepancy between any of these evaluations, a third randomly assigned reviewer agreed with one of the choices thereby producing a single concordant NAS and fibrosis score for the biopsy.
(§3) Following confirmation of eligibility based on both inclusion and exclusion criteria, subjects were randomized to receive placebo or one of two doses of EPA-E (1800 mg/day or 2700 mg/day) in three divided doses daily. Block randomization using an interactive voice response system was used to assign subjects in a 1:1:1 ratio between the three arms. Subjects were stratified by the presence of diabetes, impaired glucose tolerance or metabolic syndrome on stable doses of medication. The total fraction of such individuals was capped at 40% of the study cohort.
(§4) All subjects were followed according to a predefined clinic schedule. Data from unscheduled visits were collected in separate forms. Following twelve months of treatment, all subjects underwent a protocol-driven liver biopsy. Study drug was then discontinued.
The primary one-year efficacy endpoint was a composite of either a NAS <3 without worsening of fibrosis or a drop in NAS by 2 or more with contribution from more than one parameter and no worsening of fibrosis. The proportions of subjects meeting this endpoint after 12 months of treatment in those receiving EPA-E were compared to those receiving placebo using the Cochrane-Armitage trend test. A short-term efficacy endpoint was changes from baseline in alanine aminotransferase at 3 and 6 months. This was assessed by analysis of covariance. […]

NASH [11] = assay: Phase II NASH trial: laboratory parameters and circulating markers; type: in vivo, human
From the text: as §2, §3, §4
The primary one-year efficacy endpoint was a composite of either a NAS <3 without worsening of fibrosis or a drop in NAS by 2 or more with contribution from more than one parameter and no worsening of fibrosis. The proportions of subjects meeting this endpoint after 12 months of treatment in those receiving EPA-E were compared to those receiving placebo using the Cochrane-Armitage trend test. A short-term efficacy endpoint was changes from baseline in alanine aminotransferase at 3 and 6 months. This was assessed by analysis of covariance. Secondary endpoints included changes in the individual histological parameters related to NAFLD, overall NAS, liver enzymes and function, hemoglobin A1C, acute phase reactants, insulin sensitivity as measured by the homeostatic model (HOMA-IR), levels of cytokeratin 18 (CK18), hyaluronic acid, type IV collagen (7S domain), procollagen III peptide and key cytokines. Proportions of subjects meeting categorical endpoints were compared using the Cochrane-Armitage test for trend. Numerical scores were compared using Wilcoxon 2-sample tests. Safety-related endpoints included adverse events including hematological-, biochemical-, renal- and EKG-related abnormalities. These were enumerated.

Elasticity of arteries = type: in vivo; details: rabbits
[12] = test system: methionine-choline deficient diet rat model of nonalcoholic steatohepatitis; assay: Methionine-choline deficient diet rat model of nonalcoholic steatohepatitis; type: in vivo; details: repeat oral administration at 1000 mg/kg
[13] = single oral administration at 30 mg/kg

## CC/C=C\C/C=C\C/C=C\C/C=C\C/C=C\CCCC(=O)OCC [^14C-EPA-E]
[1]
  radioactivity excreted in the urine: 1.0%
  radioactivity recovered in the feces: 19.2%
[2]; administration into the ligated intestine of rats, at 24 hours
  residual radioactivity in the intestine: 4.6 % of the administered dose
[2]; oral administration to the rat
  unchanged EPA-E in plasma or tissues: no unchanged EPA-E was found
[2]; oral administration to the rat, liver, fat, heart and brain
  metabolites in the total lipid fraction of plasma and tissues: EPA, DPA and DHA were detected as metabolites
[2]; rats
  distribution of radioactivity in body tissues: relatively high levels were observed especially in the brown fat, adrenal, liver and pancreas
[2]; single oral dose 30-1000 mg/kg, rats
  absorption: well-absorbed, mainly through the lymphatic route
[3]
  hydrolysis: hydrolyzed rapidly

## CC/C=C\C/C=C\C/C=C\C/C=C\C/C=C\CCCC(=O)O [EPA, eicosapentaenoic acid]
CYP450
  CYP450 inhibition: unlikely to inhibit CYP450

## CC/C=C\C/C=C\C/C=C\C/C=C\C/C=C\CCCC(=O)OCC [EPA-E, ethyl all-cis-5,8,11,14,17-eicosapentaenoate]
[4]
  fat accumulation: suppressed fat accumulation
  hepatic SREBP-1c levels: suppressing hepatic SREBP-1c levels
[5]
  progression of steatohepatitis: retarded progression of steatohepatitis
[2]; rat, in vivo, po, 30 mg/kg
  radioactivity excreted in expired air: 44%
[2]; [13]
  radioactivity excreted in bile and urine: ~3%
  radioactivity excreted in feces: approximately 20%
[6]
  deaths: No deaths occurred
[7]
  lipids: lower lipids
platelets
  effects on platelets: anti-aggregation effects
[8]
  gastric fluid levels: reduction in gastric fluid levels
[9]
  effect on central nervous, autonomic nervous, respiratory and cardiovascular systems: no effect on the central nervous, autonomic nervous, respiratory and cardiovascular systems
NASH [10]; any of the treatment arms, over the duration of the study
  distribution of fibrosis scores: no significant changes in the distribution of fibrosis scores
NASH [10]; cohort as a whole, low dose and high dose, efficacy evaluable dataset
  steatosis grade: Neither low dose-nor high dose-EPA-E affected the steatosis grade significantly
NASH [10]; high dose EPA-E (2700 mg/day)
  subjects who met the primary endpoint: 22 subjects
  mean decrease in NAS: 0.8
  subjects with a decrease in NAS by more than 2 points: 18 subjects
NASH [10]; low dose EPA-E (1800 mg/day)
  subjects who met the primary endpoint: 19 subjects
  mean decrease in NAS: 1
  subjects with a decrease in NAS by more than 2 points: 16 subjects
NASH [10]; low dose and high dose, efficacy evaluable dataset
  cytological ballooning and lobular inflammation scores: not significantly altered
NASH [10]; women <50, 1800 mg/day vs placebo, adjusted, p<0.03
  increased likelihood of beneficial impact on overall NAS score: 10 fold
NASH [10]; women <50, 1800 mg/day vs placebo, adjusted, p<0.04
  increased likelihood of beneficial impact on steatosis grade: 8 fold
NASH [10]; women <50, 2700 mg/day vs placebo, adjusted, p<0.04
  increased likelihood of beneficial impact on overall NAS score: 7 fold
NASH [10]; women under 50 years of age, low dose EPA-E vs placebo, adjusted for baseline histology, BMI and changes in BMI, p=0.03
  odds ratio, beneficial impact in steatosis: 7.9
NASH [10]; women under 50 years of age, low dose EPA-E vs placebo, adjusted, p=0.02
  odds ratio, beneficial impact in overall NAS: 10.5
NASH [10]; women under 50 years of age, second value (dose group not given), adjusted, p=0.03
  odds ratio, beneficial impact in overall NAS: 6.8
NASH [11]; across groups
  body mass index: remained similar across groups
NASH [11]; baseline to end of study, FIG. 8
  AST, ALT or GGT: no significant changes
NASH [11]; either active treatment arm compared to placebo
  HgbA1C or circulating fasting insulin concentrations: no significant changes
NASH [11]; high dose EPA-E, placebo 11.5±50.9, p<0.05, Wilcoxon rank sum test
  change in serum triglycerides: −4.9±116.0
NASH [11]; high dose EPA-E, placebo −24.1±48.3, p<0.05, Wilcoxon rank sum test
  change in serum ALT: −3.2±51.5
NASH [11]; over the course of the study
  hepatic synthetic functions: did not change over the course of the study and remained stable
Elasticity of arteries
  elasticity of arteries: preserve the elasticity of arteries
[12]
  fibrosis: inhibited fibrosis
